# Measurements taken from patent US20220160669A1, “PARENTERAL NUTRITION FORMULATION” (BAXTER INTERNATIONAL INC., priority 2020, published 2022).
# Legend:
# Assay type in all cases: in vivo, pig
# [1] = test system: Neonatal Yorkshire/Landrace cross bred piglets; assay: Intestinal histomorphology: villus height and crypt depth; set-up: key to Villus (total) / Crypt (total): + denotes a positive effect (compared to standard PN); ++ a very positive effect; − denotes no difference; key to Total villus height / Total crypt depth: +++ indicate P < 0.01; ++ indicates P < 0.05; + indicates positive trends; = denotes no significant P value; − denotes negative trends; details: for % Δ from PN, Total C (crypt depth) / % Δ from PN, Total V (villus height): sum over sections; for Crypt (total) / Villus (total): all sections, compared to standard PN; for Total crypt depth / Total villus height: compared to standard PN (s-PN)
# Method: (§1) Neonatal Yorkshire/Landrace cross bred piglets (n=72; six at a time from the same litter, repeating 12 times) were obtained from Oak Hill Genetics (Ewing, Ill.) after 48-hour sow reared for colostrum consumption and iron supplementation.
# Formalin-fixed intestinal samples were embedded in paraffin, sliced to approximately 5-μm thickness with a microtome and stained with hematoxylin and eosin (FIG. 6). Villus height, midvillus width, and crypt depth were measured by using a Nikon Optiphot-2 microscope (Nikon, Melville, N.Y.) and ImagePro Express software (Version 4.5; Media Cybernetics, Inc, Silver Spring, Md.) in 8 to 10 well-oriented villi and crypts. Villus surface area (villus height×midvillus width) was also calculated. In addition, intestinal segment circumference was measured to estimate intestinal surface area. The results are provided in FIGS. 7 through 12 (see there for details). […] The Table summarizes the average difference (in % of each Intervention Group (A, B, C, D) versus the PN Group) of the villus height and the crypt depth in the different sections of the gut, i.e. duodenum, jejunum, ileum and colon. The Intervention Groups show an improved villus height compared to the s-PN Group.
# [2] = test system: Pro-inflammatory cytokines; assay: Pro-inflammatory cytokines, summary (site not stated); set-up: key: + denotes a positive effect (compared to standard PN); ++ a very positive effect; − denotes no difference; details: compared to standard PN
# Excerpt: as §1
# The influence of the respective supplements on inflammation was investigated by determining Il-6, Il-1beta, TNF-alpha and Il-10 serum levels in the intervention groups compared to EN and PN according to Milo et al., Effects of Short-Chain Fatty Acid-Supplemented Total Parenteral Nutrition on Intestinal Pro-Inflammatory Cytokine Abundance. Digestive Diseases and Sciences 2002; 47:2049-2055. Jejunal and ileal samples were homogenized in double-distilled water, and the Bradford protein assay (Biorad, Hercules, Calif., USA) was performed on homogenate and plasma samples. Protein (30 μg) from each sample was denatured by boiling, and proteins were separated by size using 12.5% sodium dodecyl sulfate polyacrylamide gel electrophoresis. Separated proteins were transferred to polyvinylidene difluoride membranes (Biorad) using a semidry transfer apparatus (Biorad). Western blot analysis for TNF-alpha, IL-1beta, Il-10 and IL-6 was performed using porcine-specific polyclonal antibodies (Endogen, Woburn, Mass., USA). A mouse anti-pig monoclonal TNF-alpha antibody was used to detect TNF-alpha ([…]). Rabbit anti-pig polyclonal antibodies specific for IL-1beta and IL-6 were used to detect IL-1beta (17,500 kDa), Il-10 (18,600 kDa) and IL-6 (26,000 kDa). Membranes were developed using the Opti-4CN kit (Biorad) and photographed using the FOTO/Analyst Image Analysis System (Fotodyne, Inc., Hartland, Wis., USA). Densitometry of TNF-alpha, IL-1beta, IL-6, and Il-10 was performed using Collage Image Analysis Software 4.0 (Fotodyne, Inc.). Results are shown in FIG. 15 (Il-6), FIG. 16 (Illbeta), FIG. 17 (TNF-alpha) and FIG. 18 (Il-10).
# [3] = test system: sIgA; assay: IgA quantification (jejunal sIgA, ELISA); set-up: key to IgA: + denotes a positive effect (compared to standard PN); ++ a very positive effect; − denotes no difference; details: for IgA: compared to standard PN; for Jejunal sIgA Concentration: compared to standard PN (s-PN)
# Excerpt: as §1
# Small intestine probes for IgA level determination were obtained by flushing the small intestine with chilled HBSS (Hank's Balanced Salt Solution). Nasal and bronchoalveolar washings for measurement of respiratory tract IgA levels were obtained by lavage with 1 mL phosphate-buffered saline solution under anesthesia. The washings were stored in a −80° C. freezer until IgA analysis. IgA was measured in small intestinal and respiratory tract washings by sandwich enzyme-linked immunosorbent assay using a polyclonal goat anti-mouse IgA (Sigma) to coat the plate, a purified mouse IgA (Zymed Laboratories, San Francisco, Calif.) as the standard, and a horseradish peroxidase-conjugated goat anti-mouse IgA (Sigma).
# [4] = test system: Neonatal Yorkshire/Landrace cross bred piglets; assay: Brain structure development by MRI; set-up: key: + denotes a positive effect (compared to standard PN); ++ a very positive effect; − denotes no difference; details: compared to standard PN
# Excerpt: On study day 9, the piglets were submitted to Magnetic Resonance Imaging (MRI) using an Agilent 9.4 Tesla MRI system (Santa Clara, Calif.) to assess brain structural development and body composition. Heart rate and respiration were monitored during the entire MRI scan. For anatomic assessment of the brain targeting the hippocampus, images were obtained using a 3D T1-weighted magnetization prepared gradient-echo sequence: repetition time=1,900 ms; echo time=2.48 ms; inversion time=900 ms, flip angle=9°, matrix=256×256 (interpolated to 512×512), slice thickness=1.0 mm. For body composition assessment, a multi-slice, spin-echo technique was used to image the truncal area (longissimus fat/muscle): echo time=20 ms; recovery time=400 ms with four-signal averaging. […] Total scanning time was approximately 60 minutes to include both brain and body composition scanning. The MRI images were analyzed using OsiriX (Bernex, Switzerland). […] The average body weight and abdominal girth of the piglets in the Study Groups was also monitored.
# [5] = test system: Neonatal Yorkshire/Landrace cross bred piglets; assay: Duodenal mucosal resistance (Ussing chamber), PN-fed neonatal piglets; set-up: key: + denotes a positive effect (compared to standard PN); ++ a very positive effect; − denotes no difference; details: 10 days, compared to standard PN
compound,measurement,setting,value
"CCCCCCCCCCCCCCCC(=O)OCC(COC(=O)CCC)OC(=O)CCCCCCCCCCCCCCC (centres unmarked) [1,2-Dipalmitoyl 3-butyryl glycerol]","average duodenal crypt length (crypt depth, FIG. 8)",[1]; 10 mmol/L TPN,gave the best results
same,average duodenal villous length (FIG. 7),[1]; 10 mmol/L TPN,increased villous length compared to the other study groups
same,average ileal crypt depth (FIG. 11),[1]; 10 mmol/L TPN,significant difference
same,average jejunal crypt depth (FIG. 10),[1]; 10 mmol/L TPN,lower
same,average jejunal villous length (FIG. 9),[1]; 10 mmol/L TPN,relatively good results
same,"% Δ from PN, Colon C (crypt depth)","[1]; 10 mmol/L TPN (Groups A, C, D)",+12%
same,"% Δ from PN, Duodenum C (crypt depth)","[1]; 10 mmol/L TPN (Groups A, C, D)",+19%
same,"% Δ from PN, Duodenum V (villus height)","[1]; 10 mmol/L TPN (Groups A, C, D)",+31%
same,"% Δ from PN, Ileum C (crypt depth)","[1]; 10 mmol/L TPN (Groups A, C, D)",+15%
same,"% Δ from PN, Ileum V (villus height)","[1]; 10 mmol/L TPN (Groups A, C, D)",+24%
same,"% Δ from PN, Jejunum C (crypt depth)","[1]; 10 mmol/L TPN (Groups A, C, D)",+2%
same,"% Δ from PN, Jejunum V (villus height)","[1]; 10 mmol/L TPN (Groups A, C, D)",+5%
same,"% Δ from PN, Total Total (crypt + villus)","[1]; 10 mmol/L TPN (Groups A, C, D)",+110%
same,"% Δ from PN, Total C (crypt depth)","[1]; 10 mmol/L TPN (Groups A, C, D)",+50%
same,"% Δ from PN, Total V (villus height)","[1]; 10 mmol/L TPN (Groups A, C, D)",+60%
same,Crypt (total),[1]; 10 mmol/L in PN,+
same,Villus (total),[1]; 10 mmol/L in PN,+
same,Pro-inflammatory cytokines,[2]; 10 mmol/L in PN,+
same,IgA,[3]; 10 mmol/L in PN,++
same,Brain,[4]; 10 mmol/L in PN,−
same,Tight junctions,[5]; 10 mmol/L in PN,−
"L-arginine, butanoate (3:4) [Arginine butyrate]","average duodenal crypt length (crypt depth, FIG. 8)",[1]; 10 mmol/L TPN,slightly better even than Groups A and D
same,average duodenal villous length (FIG. 7),[1]; 10 mmol/L TPN,only slightly below the mean values determined for Groups B and D
same,average ileal crypt depth (FIG. 11),[1]; 10 mmol/L TPN,close behind
same,average jejunal crypt depth (FIG. 10),[1]; 10 mmol/L TPN,gave the best results
same,average jejunal villous length (FIG. 9),[1]; 10 mmol/L TPN,gave the best results
same,improvement of the gut architecture in total,"[1]; 10 mmol/L TPN (Group C), versus other groups",most prominent improvement of the gut architecture
same,"% Δ from PN, Colon C (crypt depth)","[1]; 10 mmol/L TPN (Groups A, C, D)",+22%
same,"% Δ from PN, Duodenum C (crypt depth)","[1]; 10 mmol/L TPN (Groups A, C, D)",+15%
same,"% Δ from PN, Duodenum V (villus height)","[1]; 10 mmol/L TPN (Groups A, C, D)",+35%
same,"% Δ from PN, Ileum C (crypt depth)","[1]; 10 mmol/L TPN (Groups A, C, D)",+7%
same,"% Δ from PN, Ileum V (villus height)","[1]; 10 mmol/L TPN (Groups A, C, D)",+16%
same,"% Δ from PN, Jejunum C (crypt depth)","[1]; 10 mmol/L TPN (Groups A, C, D)",+3%
same,"% Δ from PN, Jejunum V (villus height)","[1]; 10 mmol/L TPN (Groups A, C, D)",+26%
same,"% Δ from PN, Total Total (crypt + villus)","[1]; 10 mmol/L TPN (Groups A, C, D)",+124%
same,"% Δ from PN, Total C (crypt depth)","[1]; 10 mmol/L TPN (Groups A, C, D)",+47%
same,"% Δ from PN, Total V (villus height)","[1]; 10 mmol/L TPN (Groups A, C, D)",+77%
same,Crypt (total),[1]; 10 mmol/L in PN,+
same,Villus (total),[1]; 10 mmol/L in PN,+
same,Total crypt depth,[1]; 10 mmol/L,+
same,Total villus height,[1]; 10 mmol/L,+
same,"gut architecture, systemic and local inflammation and systemic and local immunity (overall)",[1]; versus the Group which obtained standard PN,especially beneficial
same,Pro-inflammatory cytokines,[2]; 10 mmol/L in PN,++
same,Jejunal sIgA Concentration,[3]; 10 mmol/L,+++^3 (+++ indicate P < 0.01)
same,Brain,[4]; 10 mmol/L in PN,−
same,Tight junctions,[5]; 10 mmol/L in PN,++
CCCC(=O)OCC(COC(=O)CCC)OC(=O)CCC [Tributyrin],"average duodenal crypt length (crypt depth, FIG. 8)",[1]; 10 mmol/L TPN,gave the best results
same,average duodenal villous length (FIG. 7),[1]; 10 mmol/L TPN,only slightly below the mean values determined for Groups B and D
same,average ileal crypt depth (FIG. 11),[1]; 10 mmol/L TPN,significant difference
same,average jejunal crypt depth (FIG. 10),[1]; 10 mmol/L TPN,lower
same,"% Δ from PN, Colon C (crypt depth)","[1]; 10 mmol/L TPN (Groups A, C, D)",+9%
same,"% Δ from PN, Duodenum C (crypt depth)","[1]; 10 mmol/L TPN (Groups A, C, D)",+11%
same,"% Δ from PN, Duodenum V (villus height)","[1]; 10 mmol/L TPN (Groups A, C, D)",+32%
same,"% Δ from PN, Ileum C (crypt depth)","[1]; 10 mmol/L TPN (Groups A, C, D)",+17%
same,"% Δ from PN, Ileum V (villus height)","[1]; 10 mmol/L TPN (Groups A, C, D)",+14%
same,"% Δ from PN, Jejunum C (crypt depth)","[1]; 10 mmol/L TPN (Groups A, C, D)",−8%
same,"% Δ from PN, Jejunum V (villus height)","[1]; 10 mmol/L TPN (Groups A, C, D)",+14%
same,"% Δ from PN, Total Total (crypt + villus)","[1]; 10 mmol/L TPN (Groups A, C, D)",+89%
same,"% Δ from PN, Total C (crypt depth)","[1]; 10 mmol/L TPN (Groups A, C, D)",+29%
same,"% Δ from PN, Total V (villus height)","[1]; 10 mmol/L TPN (Groups A, C, D)",+60%
same,Crypt (total),[1]; 10 mmol/L in PN,+
same,Villus (total),[1]; 10 mmol/L in PN,+
same,Total crypt depth,[1]; 10 mmol/L,+
same,Total villus height,[1]; 10 mmol/L,+
same,"average duodenal crypt length (crypt depth, FIG. 8)",[1]; 30 mmol/L TPN,"better crypt depth than S-PN, but is not as good as Groups A, C and D"
same,average duodenal villous length (FIG. 7),[1]; 30 mmol/L TPN,increased villous length compared to the other study groups
same,"% Δ from PN, Colon C (crypt depth)",[1]; 30 mmol/L TPN (Group B),+10%
same,"% Δ from PN, Duodenum C (crypt depth)",[1]; 30 mmol/L TPN (Group B),+12%
same,"% Δ from PN, Duodenum V (villus height)",[1]; 30 mmol/L TPN (Group B),+12%
same,"% Δ from PN, Ileum C (crypt depth)",[1]; 30 mmol/L TPN (Group B),+27%
same,"% Δ from PN, Ileum V (villus height)",[1]; 30 mmol/L TPN (Group B),+31%
same,"% Δ from PN, Jejunum C (crypt depth)",[1]; 30 mmol/L TPN (Group B),−14%
same,"% Δ from PN, Jejunum V (villus height)",[1]; 30 mmol/L TPN (Group B),+5%
same,"% Δ from PN, Total Total (crypt + villus)",[1]; 30 mmol/L TPN (Group B),+111%
same,average jejunal crypt depth (FIG. 10),[1]; 30 mmol/L TPN (Group B),lower
same,"% Δ from PN, Total C (crypt depth)",[1]; 30 mmol/L TPN (Group B),+63%
same,"% Δ from PN, Total V (villus height)",[1]; 30 mmol/L TPN (Group B),+48%
same,Crypt (total),[1]; 30 mmol/L in PN,++
same,Villus (total),[1]; 30 mmol/L in PN,++
same,Total crypt depth,[1]; 30 mmol/L,+
same,Total villus height,[1]; 30 mmol/L,+
same,average jejunal villous length (FIG. 9),"[1]; Group B, printed in b62 as 10 mmol/L TPN",relatively low
same,Pro-inflammatory cytokines,[2]; 10 mmol/L in PN,−
same,Pro-inflammatory cytokines,[2]; 30 mmol/L in PN,+
same,IgA,[3]; 10 mmol/L in PN,++
same,Jejunal sIgA Concentration,[3]; 10 mmol/L,++^5 (++ indicates P < 0.05)
same,IgA,[3]; 30 mmol/L in PN,++
same,Jejunal sIgA Concentration,[3]; 30 mmol/L,++^5 (++ indicates P < 0.05)
same,Brain,[4]; 10 mmol/L in PN,−
same,Brain,[4]; 30 mmol/L in PN,−
same,Tight junctions,[5]; 10 mmol/L in PN,−
same,Tight junctions,[5]; 30 mmol/L in PN,−
